Test results: patent publication US6737439B2, “Aromatase inhibitors from Broussonetia papyrifera” (The Board of Trustees of the University of Illinois, priority 2001, dated 2004)
“And” between values parts separate entries of the source, which are not always exact repeats. Equal entries are not always repeated. “Also recorded” adds a separate entry of the source. Where two headings read alike, the source gives them in different places.

Columns and labels:
[1] = target: T1, aromatase (Homo sapiens, UniProt P11511); assay: Assay for inhibition of aromatase activity (human placental microsomes, [1,2-3H]androstenedione); format: biochemical; details: for aromatase inhibition, result in words: in vitro aromatase assay; for fold greater aromatase inhibition potency than aminoglutethimide: versus positive control aminoglutethimide
T1 construct: Reaction mixtures were prepared in glass tubes containing 4 μL of placental microsomes (5 mg/mL); from tissue; host or cells: human term placenta (microsomal fraction)
T1 sequence (P11511 1-503): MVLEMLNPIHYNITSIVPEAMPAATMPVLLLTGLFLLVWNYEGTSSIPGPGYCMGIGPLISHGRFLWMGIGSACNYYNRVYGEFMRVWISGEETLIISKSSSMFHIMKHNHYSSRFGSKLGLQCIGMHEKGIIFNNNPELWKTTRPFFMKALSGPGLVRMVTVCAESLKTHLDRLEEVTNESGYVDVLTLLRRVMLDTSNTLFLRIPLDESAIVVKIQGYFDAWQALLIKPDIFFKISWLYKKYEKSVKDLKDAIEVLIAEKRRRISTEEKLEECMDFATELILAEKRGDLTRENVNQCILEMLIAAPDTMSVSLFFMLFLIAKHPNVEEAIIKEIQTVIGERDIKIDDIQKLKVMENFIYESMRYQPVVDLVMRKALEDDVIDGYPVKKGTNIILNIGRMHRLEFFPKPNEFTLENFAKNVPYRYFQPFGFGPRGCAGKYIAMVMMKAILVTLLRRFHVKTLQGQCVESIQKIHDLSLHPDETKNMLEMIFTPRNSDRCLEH
Protocol: Assay for Inhibition of Aromatase Activity. Microsomes were prepared from freshly delivered human term placentas using 0.05 M potassium phosphate buffer, pH 7.4, and stored frozen in plastic tubes at −70° C. […] After a 4 min incubation at 37° C., the reaction was terminated by adding 3 mL of chloroform. The tubes were centrifuged at 2,000×g for 10 min and then 300 μL of the aqueous phases were transferred to tubes containing 300 μL of charcoal/dextrin solution (5%). Following another 10 min centrifugation at 2,000×g, supernatant fractions (500 μL) were used for the determination of radioactivity. Inhibition of aromatase activity was calculated using the following equation: [formula]
Samples were tested in duplicate and the mean values were used to prepare dose-response curves. Results were typically expressed as IC50 values.

[2] = tested on: alveolar lesions in a mouse mammary organ culture model; assay: Mouse mammary organ culture model, formation of alveolar lesions; format: cell-based; details: tested at 100 ng/ml
[3] = tested on: tumors in Sprague-Dawley rats; details: 400 mg/kg diet; cited from earlier work
[4] = human placental microsomes, read-out: IC50 (μM), aromatase inhibitory activity
[5] = read-out: IC50, inactive in the aromatase inhibition assay at the dose levels used

CC(C)=CCc1cc2cc(-c3cc(O)cc(O)c3)oc2cc1O [Compound 20, Moracin N]
IC50 [1, 4]: 31.1 µM | aromatase inhibition, result in words [1]: did not show potent aromatase inhibition

O=c1ccc2c(O)cc(O)cc2o1 [5,7-dihydrocoumarin, 5,7-Dihydroxycoumarin]
IC50 [1, 5]: > 225 µM

COc1ccc2c(c1CC=C(C)C)O[C@H](c1ccc(O)cc1O)CC2 [Compound 22, (2S)-2′,4′-Dihydroxy-7-methoxy-8-prenylflavan]
melting point: 95 to 96 °C | aromatase inhibition, result in words [1]: did not show potent aromatase inhibition | IC50 [1, 5]: > 118 µM

CC(C)=CCc1c(O)ccc(CCCc2ccc(O)cc2)c1O [Compound 6, 1-(2,4-Dihydroxy-3-prenylphenyl)-3-(4-hydroxyphenyl)propane]
melting point: 115 to 116 °C | aromatase inhibition, result in words [1]: inactive

O=C1C[C@@H](c2ccc(O)cc2O)Oc2cc(O)cc(O)c21 [Compound 14, (2S)-5,7,2′,4′-Tetrahydroxyflavanone]
IC50 [1, 4]: 2.2 µM

COc1cc(O)cc(-c2cc3ccc(O)cc3o2)c1CC=C(C)C [moracin I, Moracin I]
aromatase inhibition, result in words [1]: did not show potent aromatase inhibition

(2S)-Euchrenone a7 [Compound 15]
IC50 [1, 4]: 3.4 µM

Oc1ccc(CCCc2ccc(O)cc2O)cc1 [Compound 5, 1-(2,4-Dihydroxyphenyl)-3-(4-hydroxyphenyl)propane]
melting point: 92 to 93 °C | aromatase inhibition, result in words [1]: inactive

COc1ccc(CCCc2ccc(OC)c(O)c2)c(O)c1 [broussonin E, Broussonin E]
aromatase inhibition, result in words [1]: did not show potent aromatase inhibition

Broussonin F
aromatase inhibition, result in words [1]: did not show potent aromatase inhibition

COc1c(-c2ccc(O)c(O)c2)oc2cc(O)c(C/C=C(\C)CCC=C(C)C)c(O)c2c1=O [Compound 3, 5,7,3′,4′-Tetrahydroxy-3-methoxy-6-geranylflavone]
melting point: 98 to 99 °C | aromatase inhibition, result in words [1]: not active; also recorded: inactive

CC1(C)C=Cc2c(O)cc(-c3cc4ccc(O)cc4o3)cc2O1 [moracin D, Moracin D]
aromatase inhibition, result in words [1]: did not show potent aromatase inhibition

Oc1ccc([C@@H]2CCc3ccc(O)cc3O2)cc1 [(2S)-7,4′-dihydroxyflavan, (2S)-7,4′-Dihydroxyflavan]
aromatase inhibition, result in words [1]: did not show potent aromatase inhibition

COc1cc(/C=C/C(=O)OC/C(C)=C/Cc2c(O)ccc(C(=O)/C=C/c3ccc(O)cc3O)c2O)ccc1O [Compound 8, 3′-(γ-hydroxymethyl-(E)-γ-methylallyl)-2,4,2′,4′-tetrahydroxychalcone 11′-O-ferulate]
IC50 [1, 4]: 7.1 µM | aromatase inhibition, result in words [1]: active

COc1ccc(CCCc2ccc(O)cc2)c(O)c1 [Compound 18, Broussonin A]
IC50 [1, 4]: 30 µM | aromatase inhibition, result in words [1]: did not show potent aromatase inhibition

CC(C)(O)C1Cc2c(ccc3c2O[C@H](c2ccc(O)cc2O)CC3=O)O1 (stereo partly drawn) [Compound 11, 2S-2′,4′-Dihydroxy-2″-(1-hydroxy-1-methylethyl)-dihydrofuro[2,3-h]flavanone]
inhibition at 0.1 µg/mL [2]: 50% | IC50 [1, 4]: ~0.1 µM and 0.11 µM | aromatase inhibition, result in words [1]: active | fold greater aromatase inhibition potency than aminoglutethimide [1]: approximately 60 fold

Aminoglutethimide
MNU-induced tumor incidence [3]: effectively reduces

CC(C)=CCc1cc(-c2oc3c(CC=C(C)C)c(O)cc(O)c3c(=O)c2O)ccc1O [Compound 16, Broussoflavonol F]
IC50 [1, 4]: 9.7 µM

C/C(=C\Cc1c(O)ccc(C(=O)/C=C/c2ccc(O)cc2O)c1O)COC(=O)/C=C/c1ccc(O)cc1 [Compound 9, 3′-[γ-Hydroxymethyl-(E)-γ-methylallyl]-2,4,2′,4′-tetrahydroxychalcone 11′-O-coumarate]
IC50 [1, 4]: 0.5 µM and 0.52 µM | aromatase inhibition, result in words [1]: active | fold greater aromatase inhibition potency than aminoglutethimide [1]: approximately ten

CC(C)=CCc1cc([C@@H]2CCc3ccc(O)cc3O2)ccc1O [Compound 4, (2S)-7,4′-Dihydroxy-3′-prenylflavan]
aromatase inhibition, result in words [1]: did not show potent aromatase inhibition; also recorded: inactive

Oc1cc(O)cc(-c2cc3ccc(O)cc3o2)c1 [moracin M, Moracin M]
aromatase inhibition, result in words [1]: did not show potent aromatase inhibition

CC(C)=CCC/C(C)=C/Cc1c(-c2ccc(O)cc2O)oc2cc(O)cc(O)c2c1=O [Compound 1, 5,7,2′,4′-Tetrahydroxy-3-geranylflavone]
melting point: 94 to 95 °C | IC50 [1, 4]: 24 µM | aromatase inhibition, result in words [1]: active

O=C1c2c(O)cc(O)cc2O[C@H](c2ccc(O)cc2O)[C@H]1O [(2R,3R)-5,7,2′,4′-tetrahydroxyflavanonol, (2R,3R)-5,7,2′,4′-Tetrahydroxyflavanonol]
aromatase inhibition, result in words [1]: did not show potent aromatase inhibition

CC(C)=CCc1c(O)cc2oc(-c3ccc(O)c(O)c3)c(O)c(=O)c2c1O [gancaonin P, Gancaonin P]
aromatase inhibition, result in words [1]: not active

CC(C)=CCc1cc2c(cc1O)O[C@H](c1ccc(O)cc1)CC2=O [bavachin, Bavachin]
aromatase inhibition, result in words [1]: not active

CC(C)=CCc1cc([C@H]2Oc3c(CC=C(C)C)c(O)cc(O)c3C(=O)[C@@H]2O)ccc1O [(2R,3R)-lespedezaflavanone C, (2R,3R)-Lespedezaflavanone C]
aromatase inhibition, result in words [1]: did not show potent aromatase inhibition

CC(C)=CCc1c(O)cc(O)cc1-c1cc2ccc(O)cc2o1 [Compound 10, Demethylmoracin I]
IC50 [1, 4]: 31.1 µM | aromatase inhibition, result in words [1]: did not show potent aromatase inhibition; also recorded: active

O=C1c2c(O)cc(O)cc2O[C@H](c2ccc(O)cc2)[C@H]1O [(2R,3R)-katuranin, (2R,3R)-Katuranin]
aromatase inhibition, result in words [1]: did not show potent aromatase inhibition

COc1cc(O)ccc1CCCc1ccc(O)c(CC=C(C)C)c1 [Compound 7, 1-(4-Hydroxy-2-methoxyphenyl)-3-(4-hydroxy-3-prenylphenyl)propane]
melting point: 85 to 86 °C | aromatase inhibition, result in words [1]: inactive

CC(C)=CCC/C(C)=C/Cc1c(O)cc2oc(-c3ccc(O)c(O)c3)c(O)c(=O)c2c1O [Compound 2, 5,7,3′,4′-Tetrahydroxy-6-geranylflavonol]
aromatase inhibition, result in words [1]: not active; also recorded: inactive

CC1=C[C@@H]2c3c(O)cc(-c4cc5ccc(O)cc5o4)cc3O[C@]3(c4ccc(O)cc4O)Oc4cc(O)ccc4[C@@H](C1)[C@H]23 [Compound 21, Albanol A]
IC50 [1, 4]: 7.5 µM

COc1cc(O)ccc1CCCc1ccc(O)cc1 [broussonin B, Broussonin B]
aromatase inhibition, result in words [1]: did not show potent aromatase inhibition

CC(C)=CCc1c(O)ccc(C(=O)/C=C/c2ccc(O)cc2O)c1O [Compound 19, 2,4,2′,4′-Tetrahydroxy-3′-prenylchalcone]
IC50 [1, 4]: 4.6 µM
